Assay results reported in the NIST ThermoML archive (doi:10.1016/j.fluid.2004.10.025).
± gives the expanded uncertainty stated by the source.

Details: Liquid

ClC(Cl)C(Cl)Cl [1,1,2,2-tetrachloroethane]
vapor or sublimation pressure (283.15 K): 0.263 ± 0.021 kPa
vapor or sublimation pressure (288.15 K): 0.373 ± 0.021 kPa
vapor or sublimation pressure (293.15 K): 0.521 ± 0.022 kPa
vapor or sublimation pressure (298.15 K): 0.711 ± 0.023 kPa
vapor or sublimation pressure (303.15 K): 0.98 ± 0.025 kPa
vapor or sublimation pressure (308.15 K): 1.289 ± 0.028 kPa
vapor or sublimation pressure (313.15 K): 1.701 ± 0.028 kPa
vapor or sublimation pressure (318.15 K): 2.236 ± 0.029 kPa
vapor or sublimation pressure (323.15 K): 2.86 ± 0.03 kPa

ClC(Cl)=C(Cl)Cl [tetrachloroethene]
vapor or sublimation pressure (283.15 K): 1.023 ± 0.026 kPa
vapor or sublimation pressure (288.15 K): 1.4 ± 0.027 kPa
vapor or sublimation pressure (293.15 K): 1.861 ± 0.028 kPa
vapor or sublimation pressure (298.15 K): 2.462 ± 0.029 kPa
vapor or sublimation pressure (303.15 K): 3.205 ± 0.031 kPa
vapor or sublimation pressure (308.15 K): 4.117 ± 0.033 kPa
vapor or sublimation pressure (313.15 K): 5.253 ± 0.036 kPa
vapor or sublimation pressure (318.15 K): 6.621 ± 0.039 kPa
vapor or sublimation pressure (323.15 K): 8.286 ± 0.043 kPa

ClC(Cl)(Cl)Cl [tetrachloromethane]
vapor or sublimation pressure (283.15 K): 7.514 ± 0.042 kPa
vapor or sublimation pressure (288.15 K): 9.601 ± 0.047 kPa
vapor or sublimation pressure (293.15 K): 12.14 ± 0.054 kPa
vapor or sublimation pressure (298.15 K): 15.22 ± 0.064 kPa
vapor or sublimation pressure (303.15 K): 18.98 ± 0.076 kPa
vapor or sublimation pressure (308.15 K): 23.36 ± 0.09 kPa
vapor or sublimation pressure (313.15 K): 28.53 ± 0.11 kPa
vapor or sublimation pressure (318.15 K): 34.59 ± 0.13 kPa
vapor or sublimation pressure (323.15 K): 41.68 ± 0.15 kPa
